For data set [1], the system named is T. cruzi X10/7 intracellular amastigotes. As to the kind of experiment: T. cruzi intracellular assay (infected Vero cells, high-content imaging). It counts as cell-based, Trypanosoma cruzi. How it is done:
The infected Vero cells were then plated into 384-well plates containing the compounds to be tested, at 4000 cells per well in MEM media with 1% FCS. […] The plates were imaged on a Perkin Elmer Operetta high-content imaging system using a 20× objective. Images were analysed using the Columbus system (Perkin Elmer).

Another data set is described as follows: in vitro. The format is cell-based. The note with it: Chinese hamster, CC50 CHO. As for the experimental part: (§1) These new derivatives were evaluated in vitro against the intracellular T. cruzi strain X10/7-Silvio by determining their 50% efficacy concentration (EC50) and were compared to the reference anti-T. cruzi drug nifurtimox. The in vitro 50% cytotoxic concentrations (CC50) were assessed on the CHO cell line and compared to a cytotoxic reference drug, doxorubicin. In vitro cytotoxicity against vero host cells was also assessed (vero cells EC50).
The toxicity of compounds towards Chinese hamster ovary cells (CHO-K1, ATCC CCL61) was evaluated by the NRU toxicity test, based on the concentration-dependent reduction of the uptake of the vital dye neutral red when measured 24 h after chemical treatment. Cells were grown in McCoy’s medium supplemented with Penicillin 100 IU/mL and streptomycin 100 μg/mL, and 10% of inactivated calf serum, and incubated at 37 °C in CO2 5% atmosphere. They were seeded into two 96-well tissue culture plates (0.1 mL per well), at a concentration of 1 × 10^5 cells/mL, and incubated at 37 °C (5% CO2) for 24 h, until confluent. The culture medium was decanted and replaced by 100 µL of fresh medium containing the appropriate concentrations of the compounds (eight different concentrations in triplicate), then cells were incubated at 37 °C (5% CO2) in the dark for 24 h. At the end of the incubation period, cells were washed, placed into neutral red medium (50 μg/mL neutral red in complete medium). This vital dye is a weak cationic dye that penetrates membranes of living cells by […] and accumulates intracellularly in lysosomes. On the contrary, alterations of the cell surface or metabolism result in a decreased uptake and binding of NR in non-viable cells. Cells were incubated for 3 h at 37°C, 5% CO2, and then the culture medium was removed, and cells were washed three times with 0.2 mL of PBS to remove excessive dye. Destaining solution (50% ethanol, 1% acetic acid, 49% distilled water; 50µL per well) was added into the wells, and the plates were shaken for 15–20 min at room temperature in the dark. The degree of cell viability was measured by a fluorescence–luminescence reader. The optical density (OD) of each well was read at 540 nm. The results obtained for wells treated with the test compounds were compared to those of untreated control wells (100% viability) and converted to percentage values. The mean OD value of blank wells (containing only neutral red desorbed solution) was subtracted from the mean OD value of three treated wells (dilutions of the test material, positive control or HBSS). The percentages of cell viability were calculated as:Viability (%) = (Mean OD of test wells-mean OD of blanks) × 100 / (Mean OD of negative control − mean OD of blanks)
The concentration of the test substances causing a 50% release of neutral red as compared to the control culture was calculated by non-linear regression analysis using software Phototox Version 2.0.

The next data set relates to Vero host cells. The data set is described as follows: Cytotoxicity against Vero host cells in the T. cruzi intracellular assay. The note with it: Chlorocebus sabaeus. The format is cell-based. How it is done:
as §1
Vero cells (ECCAC 84113001) were screened for mycoplasma infection and maintained in MEM medium supplemented with Glutamax (Life Technologies) and 10% (v/v) foetal calf serum (FCS) at 37 °C in the presence of 5% CO2. T. cruzi parasites (Silvio X10/7 A1), a clonal line kindly provided by Susan Wyllie and Prof. Alan Fairlamb were maintained in Vero cells. On a weekly basis, emerged trypomastigotes were used to infect a new Vero monolayer at the multiplicity of infection (MOI) 1.5 [32].
For the primary intracellular assay, the infection conditions were chosen so that no trypomastigote egress occurs during the compound incubation time. First, Vero cells were infected overnight with tissue culture-derived T. cruzi trypomastigotes in T225 tissue culture flasks (MOI 5).
Next, any remaining free trypomastigotes were washed away with serum-free MEM, and the infected Vero cells were harvested by trypsinisation. The infected Vero cells were then plated into 384-well plates containing the compounds to be tested, at 4000 cells per well in MEM media with 1% FCS. After 96h incubation at 37 °C in the presence of 5% CO2, the plates were fixed with 4% formaldehyde for 20 min at room temperature and stained with 5μg/mL Hoechst 33342. The plates were imaged on a Perkin Elmer Operetta high-content imaging system using a 20× objective. Images were analysed using the Columbus system (Perkin Elmer). The algorithm for the primary assay first identified the Vero nuclei followed by the demarcation of the cytoplasm and identification of intracellular amastigotes. This algorithm reported the mean number of parasites per Vero cell and the total number of Vero cells. The data analysis was as previously described.

Setting [2] is: Trypanosoma cruzi, Vero, 96 h, intracellular T. cruzi strain X10/7-Silvio, 96h incubation, mean ± SD of two independent biological replicates, read-out: EC50 T. cruzi.
Setting [3] is: Vero host cells, 96h incubation, concentrations up to 50 µM, read-out: Vero cells EC50.
[4] abbreviates: intracellular T. cruzi strain X10/7-Silvio, 96h incubation, mean ± SD of two independent biological replicates, read-out: EC50 T. cruzi.
[5] abbreviates: Trypanosoma cruzi, Vero, Replicate 1, dose response curve, read-out: pXC50 intracellular amastigotes (converted).
Setting [6] is: Trypanosoma cruzi, Vero, Replicate 2, dose response curve, read-out: pXC50 intracellular amastigotes (converted).
Setting [7] is: Replicate 1, inhibition of Vero host cell growth, read-out: C_pXC50 host cells.

As usually defined, the melting point is the temperature, or range, at which the solid turns liquid. As a reminder, the CC50 is the concentration that lowers cell viability or growth by half.

Molecules are shown by their SMILES. Values joined by “and” are separate entries in the source; they are usually repeats but may differ in a detail not shown here. Equal entries are not always repeated. Where two headings read alike, the source gives them in different places.

`O=C(Cn1cccc1[N+](=O)[O-])NCc1cccc(C(F)(F)F)c1` [Compound 15, 2-(2-Nitro-1H-pyrrol-1-yl)-N-[3-(trifluoromethyl)benzyl]acetamide] yielded a melting point of 161 to 162 °C. In addition, in data set [1] (setting [2]), the EC50 came to 41 ± 12.7 µM. In “in vitro”, this compound displayed a CC50 at 24 h of 185 ± 5.1 µM. Also, the EC50 in the data set on Vero host cells (setting [3]) came out at 43 ± 9.9 µM.

With `O=C(Cn1cccc1[N+](=O)[O-])NC1CCCC1` [Compound 21, N-Cyclopentyl-2-(2-nitro-1H-pyrrol-1-yl)acetamide], the CC50 at 24 h in “in vitro” was 303 ± 6.1 µM.

Compound `COc1cccc2c1C(=O)c1c(O)c3c(c(O)c1C2=O)C[C@@](O)(C(=O)CO)C[C@@H]3O[C@H]1C[C@H](N)[C@H](O)[C@H](C)O1` [Doxorubicin, reference compound] showed a CC50 at 24 h in the data set “in vitro” of 4.6 ± 0.08 µM.

The compound `O=C(Cn1cccc1[N+](=O)[O-])NCc1ccccc1` [Compound 3, N-Benzyl-2-(2-nitro-1H-pyrrol-1-yl)acetamide] registered a melting point of 174 to 175 °C. Further, the EC50 in data set [1] (setting [2]) stood at 34.5 ± 21.9 µM. This compound also displayed a CC50 at 24 h in “in vitro” of 24.3 µM. The EC50 in the data set on Vero host cells (setting [3]) turned out to be 42 ± 11.3 µM.

For `CC(C)NC(=O)Cn1cccc1[N+](=O)[O-]` [Compound 20, N-Isopropyl-2-(2-nitro-1H-pyrrol-1-yl)acetamide], the melting point was in the range of 190 to 191 °C. The same compound yielded a CC50 at 24 h in “in vitro” of 321 ± 5.3 µM.

As to `O=C(Cn1cccc1[N+](=O)[O-])Nc1ccccc1` [Compound 4, 2-(2-Nitro-1H-pyrrol-1-yl)-N-phenylacetamide], the melting point lay in the range of 201 to 202 °C. In addition, the EC50 in data set [1] (setting [2]) is less than 10 µM. Moreover, the EC50 in data set [1] (setting [4]) turned out to be 6 µM. The same compound returned a CC50 at 24 h in “in vitro” of 262 ± 3.9 µM. Further, the EC50 in the data set with Vero host cells (setting [3]) was determined as 14 µM.

On to `O=C(Cn1cccc1[N+](=O)[O-])Nc1ccc(Br)cc1` [Compound 16, N-(4-Bromophenyl)-2-(2-nitro-1H-pyrrol-1-yl)acetamide], for which the EC50 is less than 10 µM in data set [1] (setting [2]), 6.5 ± 0.6 µM in data set [1] (setting [4]) and 14.5 ± 0.7 µM in the data set with Vero host cells (setting [3]). In “in vitro”, this compound had a CC50 at 24 h of 173 ± 4.6 µM.

In the case of `O=C(Cn1cccc1[N+](=O)[O-])Nc1cccc(C(F)(F)F)c1` [Compound 18, 2-(2-Nitro-1H-pyrrol-1-yl)-N-[3-(trifluoromethyl)phenyl]acetamide], in data set [1] (96h treatment, two independent replicates, normalised to DMSO (0%) and nifurtimox controls (100%)), the “maximum effect (percent inhibition of intracellular amastigotes)” value is 71%. In addition, in data set [1] (Trypanosoma cruzi, Vero, 96 h, 96h treatment, two independent replicates, normalised to DMSO (0%) and nifurtimox controls (100%), read-out: maximum effect (percent inhibition of intracellular amastigotes)), the Emax was found to be 79%. For the same compound, the EC50 was 2.29 µM in data set [1] (setting [5]); 4.9 µM in data set [1] (setting [6]); < 10 µM and 3.6 µM in data set [1] (setting [4]); greater than 50.1 µM with Vero host cells (setting [7]); greater than 50 µM in the data set with Vero host cells (setting [3]). For the same compound, the CC50 at 24 h in the data set “in vitro” stood at 156 ± 2.9 µM.

As for `O=C(Cn1cccc1[N+](=O)[O-])Nc1cc(F)ccc1Br` [Compound 22, N-(2-Bromo-5-fluorophenyl)-2-(2-nitro-1H-pyrrol-1-yl)acetamide], the melting point lay in the range of 185 to 186 °C. The same compound showed a CC50 at 24 h in the data set “in vitro” of 188 ± 4.4 µM.

In the case of `CC1CS(=O)(=O)CCN1/N=C/c1ccc([N+](=O)[O-])o1` (centres unmarked) [Nifurtimox, reference compound], the EC50 is 2.1 ± 0.2 µM in data set [1] (setting [2]), 2.04 µM in data set [1] (setting [5]), 2.04 µM in data set [1] (setting [6]) and greater than 15.8 µM with Vero host cells (setting [7]).

As to `COc1cccc(NC(=O)Cn2cccc2[N+](=O)[O-])c1` [Compound 19, N-(3-Methoxyphenyl)-2-(2-nitro-1H-pyrrol-1-yl)acetamide], the EC50 in data set [1] (setting [2]) is 50 µM; in the data set on Vero host cells (setting [3]) it was greater than 50 µM. The CC50 at 24 h in the data set “in vitro” was 260 ± 6.3 µM.

Regarding `O=C(Cn1cccc1[N+](=O)[O-])Nc1ccccc1Cl` [Compound 17, N-(2-Chlorophenyl)-2-(2-nitro-1H-pyrrol-1-yl)acetamide], the EC50 is 50 µM in data set [1] (setting [2]) and greater than 50 µM in the data set with Vero host cells (setting [3]). This compound gave a CC50 at 24 h in “in vitro” of 198 ± 5.7 µM.

The values above are taken from publication PMC9000427, “Synthesis and Anti-Trypanosoma cruzi Biological Evaluation of Novel 2-Nitropyrrole Derivatives” (Molecules, 2022).
